Where two headings read alike, the source gives them in different places.
Key:
[1] = tested on: T cells co-cultured with BMDM; assay: T cells co-cultured with bone marrow-derived macrophages (BMDM) polarized to M2; assay type: cell-based, mouse; conditions: for proliferation of T cells (CFSE dilution): macrophages differentiated in NM
Method: In vitro bone marrow-derived macrophage differentiation. For this purpose, bone marrow cells were aseptically collected from 8-10 weeks old female C57BL/6J mice by crushing the femurs and tibias in PBS, […] and 2 mM EDTA. Cells were added to ACK buffer to lyse the red blood cells for 2 mins with intermediate vortexing. The solution was filtered through a 40 μm strainer to remove bone fragments. To differentiate bone marrow cells to macrophages the cells were plated in DMEM media (100%) or DMEM media (70%) and 30% tumor-conditioned media, supplemented with 10% heat-inactivated charcoal-stripped serum in the presence of 30 ng/mL MCSF (Cat #312-02, PeproTech). After 3 days cells were supplemented with 50% of respective fresh media. On day 6 the media was removed and replaced with fresh media. […] For polarization, cells were further treated with LIPS (100 ng/mL, Cat L2630, Sigma Aldrich) and IFNγ (20 ng/mL, Cat #315-05, PeproTech) (24 hr) for M1 polarization or IL4 (10 ng/mL, cat #214-14, PeproTech) for M2 polarization.
T cell proliferation assay and staining. CD3+ T cells were isolated from the spleens of C57BL/6J or P-mel mice with magnetic bead-based T cell isolation kit (Cat #19851, StemCell Technologies). T cells from naïve mice were stained with 5 μM CFSE (Cat #C34554, ThermoFisher Scientific) for 5 minutes in PBS+5% CFS with rapid vortexing following which the cells were washed twice with PBS. Stained T cells were then counted and plated in 96-well plates coated with anti-CD3 antibody (0.5 μg/mL, Cat #19851, ThermoFisher Scientific) anti-CD28 antibody (1 μg/mL, Cat #16-0281-86, Thermo Fisher Scientific) at desired density (250,000 T cells/50,000 CD11b or BMDM) in the presence of IL2 (50 ng/mL) (Cat #212-12, PeproTech). 72 hr after plating the cells were incubated with protein transport inhibitors brefeldin (Cat #00-4506-51, Thermo Fisher Scientific) and monensin (Cat #00-4505-51, Thermo Fisher Scientific) for 6 hr at a final concentration of 2 μM monensin and 3 μg/mL brefeldin after which they were collected and were processed for staining for flow cytometry.
Of note, no changes in the percentage of Ly6C+/Ly6G+ MDSCs in tumors between the two treatment conditions were observed (FIG. 10D). […] The addition of tumor conditioned media allows the TME to be partially mimicked where tumor derived factors influence the differentiation and polarization of macrophages. […] The polarized macrophages were subsequently co-cultured with sub-optimally activated T cells (CD3/CD28 and IL2) isolated from spleens of non-tumor bearing mice, for 72 hr following which they were treated with protein transport inhibitors (monensin and brefeldin) for 6 hr to prevent release of cytokines and chemokines.

YuMM5.2 tumors = assay type: in vivo
Method: Tumor models and cells. The mouse B16F10 and Yumm5.2 cell lines were purchased from American Type Culture Collection (ATCC, Manassas, VA). The mouse melanoma cell line BPD6 was established from iBP as described elsewhere (Zhao et al., Immunity 2018, 48, 147-160). B16F10 and BPD6 cells were maintained in Dulbecco's Modified Eagle's Medium (DMEM) supplemented with 8% fetal bovine serum (FBS), 0.1 mM non-essential amino acids (NEAA) and 1 mM sodium pyruvate. YuMM5.2 cells were maintained in DMEM/F12 media supplemented with 10% FBS. The cells were replated 3 times/week at a confluency of 1:10 and were kept in a 37° C. incubator at 5% CO2. For subcutaneous tumor models B16F10 (5×10^4 or 1×10^5), YuMM5.2 (5×10^5), and BPD6 (5×10^5) cells were injected into the right flank of the mice. For iBP mice, tumors were induced with a single intradermal dose of 4-hydroxytamoxifen in DMSO (150 μg/mouse). Tumors were measured thrice weekly using an electronic caliper. Tumor volumes were calculated by the formula V=L×(W×W)/2. For iBP mouse tumors, volumes were calculated by the formula V=L×B×H. For tumor growth rate studies mice were euthanized when the tumors reached a maximum size of 2000 mm^3.
Ovarlectomy and subcutaneous pellet Insertion. Ovariectomy was performed as previously described (Nelson et al., Science 2013, 342, 1094-1098). Eight days prior to tumor inoculation, 7 weeks old C57BL/6J or 5 weeks old (iBP) female mice were subjected to ovariectomy or sham surgery. Mice were anesthetized in an inhalation chamber (2% Isoflurane) and maintained in half the dose of isoflurane (1%) via nose cone throughout the surgical process. Prior to surgery, mice were administered a 5 mg/kg dose of carprofen subcutaneously. The area below the ribs was shaved with an electronic razor and the skin was sterilized by rubbing with betadine and alcohol (3× alternating). A horizontal incision was made through the skin above the ovary fat pad, followed by a vertical incision through the abdominal muscle wall. The ovary was externalized and removed using a cauterizing scissors (or returned if sham). Fat pad was replaced, and muscle walls were opposed and sutured (1-2 stitches). Following suturing, 1 drop of bupivacaine (0.25%) was added on top of the incision site. The skin was opposed, and a wound clip was placed on the incision site. This was repeated for the other ovary. The mouse was then removed from anesthesia and kept in a clean cage and monitored until conscious. The mice were monitored for recovery for 10 days.
Single cell isolation from tumors. Tumors were isolated, minced on a petri dish in media (DMEM+5% FBS), and then enzymatically digested by the addition of 100 μg/mL DNase I (D5025-150KU, Sigma-Aldrich) and 1 mg/mL collagenase (Collagenase A, Cat #10103586001, Sigma-Aldrich) for 30 mins-45 mins. For iBP models, isolated tumors were sliced into large chunks and subjected to mechanical digestion in a gentleMACS Dissociator for 30 seconds twice. Following this, tumors were digested with an enzyme cocktail containing DNase I, collagenase, and hyaluronidase (100 μg/mL) (H6254, Sigma-Aldrich) for 40 mins following a second round of mechanical digestion for 30 seconds (twice). The cells were then filtered through a 40 μm strainer to produce single cell suspensions and the enzymes were diluted by addition of additional media then spun down to remove media. Red blood cells were lysed with the addition of ACK lysis buffer (Cat #A1049201. ThermoFisher Scientific) for 4 mins at room temperature. Following red blood cell lysis, cells were washed with PBS before proceeding to flow cytometry staining or magnetic bead-based isolation.
Flow cytometry staining. Single cells suspensions (10^6 cells in 50 μL) were incubated with Live/dead fixable dead cell stain in PBS for 10 mins at 4° C. Cells were spun down at 1000×g and were incubated with anti-CD16/32 (Catalog #14-0161-85, ThermoFisher Scientific) in flow buffer (10 gms BSA in 1 L PBS+sodium azide) for 15 mins. […]

[2] = E2 vs placebo, ex vivo PMA and ionomycin 4 hr

17β-estradiol [E2]
proliferation of T cells (CFSE) ([1]; BMDM from Esr1^f/f and Esr1^f/f, LysMCre differentiated in NM, DMSO or E2): No difference | T cell proliferation (CFSE dilution) ([1]; macrophages differentiated in 30% TCM and E2): effectively suppressed | proliferation of T cells (CFSE dilution) ([1]; E2): not affected | expression of GZMB and IFNγ in T cells ([1]; macrophages differentiated in TCM, E2 1 nM vs DMSO): decreased expression | expression of IFNγ and GZMB in T cells ([1]; macrophages in normal media (NM), E2 1 nM): did not display any change | tumor promoting effects of E2, tumor cells co-mixed with BMDM (1:1) (YuMM5.2 tumors; BMDM from Esr1^f/f, LysMCre versus Esr1^f/f): significantly compromised | number of PD1+CD8+ T cells (exhausted T cells) (YuMM5.2 tumors; E2 treatment): increased | Granzyme B expression in CD8+ TILs (YuMM5.2 tumors; [2]): reduced expression | IFNγ in CD8+ TILs (YuMM5.2 tumors; [2]): reduced expression | PD1 expression on CD8+ TILs (YuMM5.2 tumors; [2]): significantly more | activation markers CD44 and CD69 on CD8+ TILs (YuMM5.2 tumors; [2]): reduced expression | tumor growth (YuMM5.2 tumors; E2 vs placebo, ovariectomized C57BL/6J): significantly increased | infiltration of CD4+ FOXP3+ regulatory T cell subsets (YuMM5.2 tumors; E2 vs placebo, FIGS. 16D-16E B16F10 and YuMM5.2): not observed | tumor growth (YuMM5.2 tumors; Esr1^f/f and LysMCre control mice): increased | tumor growth (YuMM5.2 tumors; Esr1^f/f, LysMCre mice (myeloid ERα knockout)): not evident | percentage of Ly6C+/Ly6G+ MDSCs in tumors (YuMM5.2 tumors; flow cytometry, E2 vs placebo): no changes | M1 (proinflammatory macrophages) in tumor infiltrating immune cells (YuMM5.2 tumors; flow cytometry, Esr1^f/f animals): decrease

C[C@]12CC[C@@H]3c4ccc(O)cc4C[C@@H](CCCCCCCCC[S+]([O-])CCCC(F)(F)C(F)(F)F)[C@H]3[C@@H]1CC[C@@H]2O (some centres unmarked) [fulvestrant]
E2-induced suppression of T cell proliferation ([1]; macrophages differentiated in 30% TCM, E2 (1 nM)+fulvestrant (100 nM)): reversed | proliferation of T cells (CFSE dilution) ([1]; E2+fulvestrant): not affected | inflammatory macrophages (MHCII^hi CD206−) (YuMM5.2 tumors; E2 treated mice co-treated with fulvestrant): increase | tumor growth (YuMM5.2 tumors; fulvestrant 25 mg/kg, E2 supplemented mice): significantly reduced | number of PD1+CD8+ T cells (exhausted T cells) (YuMM5.2 tumors; fulvestrant treatment of E2 treated mice): decrease | cytotoxic capabilities of tumor infiltrating T cells, Granzyme B (GZMB) expression (YuMM5.2 tumors; mouse, in vivo): increase

Reference: patent US20240398831A1, “COMPOSITIONS COMPRISING SMALL MOLECULE REGULATORS OF TUMOR IMMUNITY AND METHODS OF USING SAME” (Duke University, priority 2021, published 2024)
